From ChEMBL document CHEMBL3132793, “Novel FK506 and FK520 analogues via mutasynthesis: mutasynthon scope and product characteristics” (Medchemcomm, 2013) come the findings set out here.

The nature of data set [1]: Inhibition of calcineurin in human Jurkat cells assessed as inhibition of NFAT-mediated IL-2 production after 8 hrs by beta-lactamase reporter gene assay. Format: cell-based.
Data set [2] in a line: Half life in human liver microsomes. Format: ADME. (In general: Microsomes from liver hold many membrane-bound enzymes, among them those of drug oxidation.)
Data set [3] in a line: Half life in mouse liver microsomes. Format: ADME, Microsome.
Data set [4] is described as follows: Solubility of the compound in phosphate buffered saline. Type of data set: physicochemical.
Setting [5] is: phosphate buffered saline, read-out: solubility.

Molecules are shown by their SMILES. pIC50: −log10 of the molar value. Converted amounts (≈) assume the structure as drawn.

What is called pIC50 is −log10 of the IC50, conventionally taken in molar units. With `CO[C@H]1C[C@@H](C)C/C(C)=C/[C@@H](C)C(=O)C[C@H](O)[C@@H](C)[C@@H](/C(C)=C/[C@@H]2CC[C@@H](O)[C@@H](F)C2)OC(=O)[C@@H]2CCCCN2C(=O)C(=O)[C@]2(O)O[C@H]1[C@@H](OC)C[C@H]2C`, the pIC50 in data set [1] is 9.55.
The term half-life denotes the time in which the quantity being followed falls by half. A low value points to rapid decline. A word on the solubility: it is the dissolved amount per volume that the medium holds. Consider `CC[C@@H]1/C=C(\C)C[C@H](C)C[C@H](OC)[C@H]2O[C@@](O)(C(=O)C(=O)N3CCCC[C@H]3C(=O)O[C@H](/C(C)=C/C3CCOCC3)[C@H](C)[C@@H](O)CC1=O)[C@H](C)C[C@@H]2OC`, for which the half-life was 1.8 min in data set [2] and 7.6 min in data set [3]. In addition, in data set [1], the negative logarithm of the IC50 (pIC50) was 9.34. Further, in data set [4] (setting [5]), the solubility stood at 13.4 µM (≈ 10 µg/mL).
Turning to `CC[C@@H]1/C=C(\C)C[C@H](C)C[C@H](OC)[C@H]2O[C@@](O)(C(=O)C(=O)N3CCCC[C@H]3C(=O)O[C@H](/C(C)=C/[C@@H]3CC[C@@H](O)[C@H](OC)C3)[C@H](C)[C@@H](O)CC1=O)[C@H](C)C[C@@H]2OC` [ASCOMYCIN], the half-life in data set [2] is 2.4 min; in data set [3] it was 17.4 min. The negative-log IC50 (pIC50) in data set [1] was 9.69. For the same molecule, the solubility in data set [4] (buffer) is 40.2 µM (≈ 31.8 µg/mL).
Regarding `CC[C@@H]1/C=C(\C)C[C@H](C)C[C@H](OC)[C@H]2O[C@@](O)(C(=O)C(=O)N3CCCC[C@H]3C(=O)O[C@H](/C(C)=C/[C@H]3CC[C@H](O)CC3)[C@H](C)[C@@H](O)CC1=O)[C@H](C)C[C@@H]2OC`, in data set [1], the negative logarithm of the IC50 (pIC50) is 9.60.
Consider `CC[C@@H]1/C=C(\C)C[C@H](C)C[C@H](OC)[C@H]2O[C@@](O)(C(=O)C(=O)N3CCCC[C@H]3C(=O)O[C@H](/C(C)=C/[C@@H]3CC[C@@H](O)[C@@H](F)C3)[C@H](C)[C@@H](O)CC1=O)[C@H](C)C[C@@H]2OC`, for which the figures for the half-life in data set [2] and in data set [3] were 3.2 min and 11.3 min, respectively. Also, the pIC50 in data set [1] was 10.09. Also, the solubility in data set [4] (setting [5]) was found to be 35.6 µM (≈ 27.8 µg/mL).
Turning to `CC[C@@H]1/C=C(\C)C[C@H](C)C[C@H](OC)[C@H]2O[C@@](O)(C(=O)C(=O)N3CCCC[C@H]3C(=O)O[C@H](/C(C)=C/[C@H]3CCCC(O)CC3)[C@H](C)[C@@H](O)CC1=O)[C@H](C)C[C@@H]2OC` (stereo not given in full), the half-life in data set [2] stood at 3.1 min; in data set [3] it was 3.8 min. For the same molecule, the pIC50 in data set [1] is 10.14. Further, the solubility in data set [4] (setting [5]) worked out at 86.5 µM (≈ 67.1 µg/mL).
Take `C=CC[C@@H]1/C=C(\C)C[C@H](C)C[C@H](OC)[C@H]2O[C@@](O)(C(=O)C(=O)N3CCCC[C@H]3C(=O)O[C@H](/C(C)=C/[C@H]3CC=CCC3)[C@H](C)[C@@H](O)CC1=O)[C@H](C)C[C@@H]2OC`: the half-life in data set [2] is 5.7 min; in data set [3], 3 min. In addition, in data set [1], the pIC50 is 9.36. The solubility in data set [4] (setting [5]) was 0.7 µM (≈ 0.529 µg/mL).
Taken in the same sequence, the figures for `C=CC[C@@H]1/C=C(\C)C[C@H](C)C[C@H](OC)[C@H]2O[C@@](O)(C(=O)C(=O)N3CCCC[C@H]3C(=O)O[C@H](/C(C)=C/[C@@H]3CC[C@@H](O)[C@H](OC)C3)[C@H](C)[C@@H](O)CC1=O)[C@H](C)C[C@@H]2OC` [TACROLIMUS ANHYDROUS] were 2.4 min, 22.1 min, 10.25 and 42.4 µM (≈ 34.1 µg/mL).
`C=CC[C@@H]1/C=C(\C)C[C@H](C)C[C@H](OC)[C@H]2O[C@@](O)(C(=O)C(=O)N3CCCC[C@H]3C(=O)O[C@H](/C(C)=C/[C@H]3CC[C@H](O)CC3)[C@H](C)[C@@H](O)CC1=O)[C@H](C)C[C@@H]2OC`: the half-life was 2.6 min in data set [2] and 9 min in data set [3]. Also, in data set [1], the pIC50 is 9.84. The solubility in data set [4] (setting [5]) was 1.3 µM (≈ 1.01 µg/mL).
